The text below walks through data of PMC11651181, “Discovery of 6α-Thiazolylcarboxamidonaltrexamine Derivative (NTZ) as a Potent and Central Nervous System Penetrant Opioid Receptor Modulator with Drug-like Properties for Potential Treatment of Opioid Use Disorder” (ACS Pharmacology & Translational Science, 2024).

One data set has as its target T1, κ opioid receptor (KOR) (Mus musculus, UniProt P33534).
T1 construct: expressed in transfected cells; host or cells: CHO (mKOR-CHO), membrane preparation
Kind of data set: Competitive radioligand binding assay, KOR. To be noted: for Selectivity κ/μ: ratio of Ki values. How it is done: (§1) The competition binding assay was performed using monoclonal mouse opioid receptors expressed in CHO cell lines (monoclonal human δ opioid receptor was used for the DOR assay).
(§2) The bound radioligand was separated using a Brandel harvester. Specific binding to the MOR, KOR, and DOR was calculated by subtracting the binding observed in the presence of 5 μM naltrexone, U50488, and SNC80, respectively, from the binding in their absence. Relative affinity values (IC50) were determined by fitting displacement binding inhibition data to a nonlinear regression model using GraphPad Prism 8.0 (GraphPad Software, San Diego, CA). The % inhibition was calculated using the formula: % inhibition = 100% - [(binding with the tested compound - nonspecific binding)/specific binding] × 100%. The IC50 values were converted to Ki values using the Cheng-Prusoff equation: Ki = IC50/ [1 + ([L*]/KD)], where [L*] is the concentration of the radioligand and KD is the KD of the radioligand.[68]

Data set [1] has as its system Swiss Webster mice. Kind of data set: Warm-water tail immersion assay, agonism (acute antinociception). To be noted: single dose of 10 mg/kg s.c., n = 6, vs 10 mg/kg morphine.
Data set [2] has as its target T2, MOR (Mus musculus, UniProt P42866).
T2 construct: expressed in transfected cells; host or cells: CHO (MOR-CHO), membrane preparation
As to the kind of experiment: MOR [35S]GTPγS functional assay. Type of data set: biochemical. To be noted: for Emax: read-out: MOR [35S]GTPγS Binding %Emax of DAMGO, relative to 3 μM DAMGO, mean ± SEM. How it is done:
(§3) The [^35S]GTPγS functional assay was used to assess the efficacy of compounds at the MOR, KOR, and DOR. In this assay, 10 μg of MOR-CHO/KOR-CHO/DOR-CHO membrane protein was incubated in 500 μL of TME with 100 mM NaCl, 20 μM GDP, 0.1 nM [^35S]GTPγS, and varying concentrations of the compound for 1.5 h in a 30 °C water bath. Protein concentration was adjusted using the Bradford protein assay. […] After incubation, bound radioactivity was separated by filtration through GF/B glass fiber filters and measured by liquid scintillation counting. All assays were performed in duplicate and repeated at least three times. Net stimulated [35S]GTPγS binding was calculated as agonist-stimulated minus basal binding.
Background: Binding of GTPγS marks nucleotide exchange on a G protein.

A further data set has as its target T3, δ opioid receptor (DOR) (Homo sapiens, UniProt P41143).
T3 construct: expressed in transfected cells; host or cells: CHO (hDOR-CHO), membrane preparation
Kind of data set: Competitive radioligand binding assay, DOR. How it is done:
as §1, §2

In another data set the target is T4, μ opioid receptor (MOR) (Mus musculus, UniProt P42866).
T4 construct: expressed in transfected cells; host or cells: CHO (mMOR-CHO), membrane preparation
Kind of data set: Competitive radioligand binding assay, MOR. How it is done:
as §1, §2

The target in another data set is T5, DOR (Homo sapiens, UniProt P41143).
T5 construct: expressed in transfected cells; host or cells: CHO (DOR-CHO), membrane preparation
Kind of data set: DOR [35S]GTPγS functional assay. Format: biochemical. To be noted: for Emax: relative to 3 μM SNC80, mean ± SEM, read-out: DOR [35S]GTPγS binding % Emax of SNC80. How it is done:
as §3

Data set [3] addresses T2, MOR. Kind of data set: MOR calcium flux assay in Gαqi5-transfected mMOR-CHO cells. Format: cell-based. To be noted: for Agonistic activity in increasing intracellular calcium, in words: compared to full MOR agonist DAMGO. Background: Calcium assays in cells follow changes in intracellular calcium, usually with a dye or a luminescent sensor.
The target in another data set is T6, KOR (Mus musculus, UniProt P33534).
T6 construct: expressed in transfected cells; host or cells: CHO (KOR-CHO), membrane preparation
As to the kind of experiment: KOR [35S]GTPγS functional assay. Format: biochemical. To be noted: for Emax: relative to 3 μM U50488H, mean ± SEM, read-out: KOR [35S]GTPγS binding % Emax of U50488H. How it is done: as §3

For data set [4], the system named is Swiss Webster mice. As to the kind of experiment: Warm-water tail immersion assay, antagonism of morphine-induced antinociception. To be noted: for AD50 (95% CL) for counteracting morphine-induced antinociception: mice, s.c., given 5 min before morphine; for Antagonism of morphine's antinociception, in words: single dose of 10 mg/kg s.c. in the presence of morphine (10 mg/kg), n = 6.

For another data set, the system named is morphine-pelleted mice. As to the kind of experiment: In vivo opioid withdrawal studies in morphine-pelleted mice. The arrangement: species or system mouse. To be noted: for Jumps, mean count / Paw tremors, mean count / Wet dog shake, mean count: 5 mg/kg s.c., counted over 20 min; for Precipitated withdrawal symptoms, in words: s.c. How it is done:
Swiss Webster mice (six males per group, weighing 25–35 g and aged 6–8 weeks) were used. Following a previously established protocol,[20] a 75 mg morphine pellet was implanted subcutaneously into the back of each mouse, and they were allowed to recover in their home cages. Prior to testing, the mice were habituated for 30 min in an open-topped, clear Plexiglas observation chamber (26 × 26 × 26 cm^3) with lines marking the floor into quadrants. […]. Withdrawal symptoms began within 3 min of antagonist administration. Escape jumps, paw tremors, and wet dog shakes were recorded by counting their occurrences over a 20 min period for each mouse. Results are expressed as the mean ± SEM.

For the next data set, the system named is GI-tract motility. On the set-up: method as in PMID 22683223. To be noted: cited from earlier work.
Data set [5] relates to Swiss Webster mice. On the set-up: method as in PMID 35255685. To be noted: warm-water tail immersion; cited from earlier work.
Data set [6] has as its system Swiss Webster mice. To be noted: cited from earlier work; for %MPE in single dose antagonism assay: in the presence of morphine; for AD50 (95% CL) for counteracting morphine-induced antinociception: mice.

The structures appear in SMILES notation. “Also recorded” adds a separate entry of the source. Structures can show the parent of a compound that is named as a salt. Where two headings read alike, the source gives them in different places.

Turning to `O=C(N[C@H]1CC[C@@]2(O)[C@H]3Cc4ccc(O)c5c4[C@@]2(CCN3CC2CC2)[C@H]1O5)c1ccns1` [Compound 1, 17-Cyclopropylmethyl-3,14β-dihydroxy-4,5α-epoxy-6α-(5′-isothiazolylcarboxamido)-morphinan hydrochloride], on κ opioid receptor (KOR), the affinity, expressed as Ki, was 1.81 ± 0.18 nM and the “Selectivity κ/μ” value is listed as 4. Further, the “Antinociceptive effect (MPE) compared to morphine, in words” value in the data set with Swiss Webster mice [1] was “significantly lower than that of morphine”. Further, at MOR [2], the EC50 – broadly, the concentration giving half of the maximal effect – worked out at 4.93 ± 0.8 nM and the Emax (as a rule, the greatest response seen or fitted, relative to the assay's reference) was found to be 15.6 ± 1.11%. Further, on δ opioid receptor (DOR), the Ki (usually a dissociation constant, usually derived from enzyme kinetics or from competition with a known ligand) stood at 14.3 ± 0.66 nM. Moreover, the “Selectivity δ/μ” value on δ opioid receptor (DOR) (ratio of Ki values) came out at 28. At μ opioid receptor (MOR), this compound came in with an inhibitory constant (Ki) of 0.51 ± 0.08 nM.

`O=C(N[C@@H]1CC[C@@]2(O)[C@H]3Cc4ccc(O)c5c4[C@@]2(CCN3CC2CC2)[C@H]1O5)c1ccns1` [Compound 9, 17-Cyclopropylmethyl-3,14β-dihydroxy-4,5α-epoxy-6β-(5′-isothiazolylcarboxamido)-morphinan hydrochloride]: the Ki at κ opioid receptor (KOR) is 1.22 ± 0.32 nM; on δ opioid receptor (DOR) it was 67.8 ± 7.17 nM; on μ opioid receptor (MOR) it was 0.32 ± 0.03 nM. Further, on κ opioid receptor (KOR), the “Selectivity κ/μ” value was 4. The EC50 turned out to be 58.1 ± 10.3 nM on DOR, 0.71 ± 0.14 nM on MOR [2] and 7.06 ± 0.18 nM at KOR. For the same compound, the values for the Emax at DOR, at MOR [2] and at KOR were 44.4 ± 4.15%, 9.66 ± 1.37% and 49.9 ± 1.99%, respectively. Moreover, the IC50 (as a rule, the point on the concentration scale where inhibition reaches its midpoint) on MOR [3] amounted to 6.53 ± 2.28 nM. The “Agonistic activity in increasing intracellular calcium, in words” value at MOR [3] is recorded as “no apparent agonism; also recorded: none of them showed any significant agonistic activity”. For the same compound, the “AD50 (95% CL) for counteracting morphine-induced antinociception” value (“AD50 (95% CL)” for short) in the data set on Swiss Webster mice [4] is 4.77 (3.59–6.34) mg/kg. In addition, in the data set with Swiss Webster mice [4], the “Antagonism of morphine's antinociception, in words” value was “significantly antagonized”.

`O=C(N[C@@H]1CC[C@@]2(O)[C@H]3Cc4ccc(O)c5c4[C@@]2(CCN3CC2CC2)[C@H]1O5)c1nccs1` [Compound 14, 17-Cyclopropylmethyl-3,14β-dihydroxy-4,5α-epoxy-6β-(2′-thiazolylcarboxamido)-morphinan hydrochloride]: at κ opioid receptor (KOR), the affinity corresponds to a Ki of 0.75 ± 0.08 nM and the “Selectivity κ/μ” value came to 2. Moreover, at DOR, the EC50 was 44 ± 6.82 nM and the Emax came to 25.9 ± 0.4%. Further, on MOR [2], a half-maximal response (EC50) required 0.56 ± 0.2 nM and the Emax came to 6.06 ± 0.52%. On MOR [3], the IC50 is 12.4 ± 1.18 nM and the “Agonistic activity in increasing intracellular calcium, in words” value is listed as “no apparent agonism; also recorded: none of them showed any significant agonistic activity”. In addition, in the data set with morphine-pelleted mice, the “Jumps, mean count” value is recorded as 58.8; the “Paw tremors, mean count” value turned out to be 45.7; the “Wet dog shake, mean count” value worked out at 17.7; the “Precipitated withdrawal symptoms, in words” value is “fewer wet dog shakes and paw tremors at all testing doses than 1 mg/kg NLX”. Moreover, on δ opioid receptor (DOR), the Ki is 117 ± 23.6 nM. Besides, on μ opioid receptor (MOR), the Ki is 0.3 ± 0.04 nM. In addition, on KOR, the EC50 came to 9.67 ± 1.81 nM and the Emax turned out to be 39.8 ± 2.82%. Moreover, in the data set on Swiss Webster mice [4], the “AD50 (95% CL)” value was 0.23 (0.04–1.37) mg/kg and the “Antagonism of morphine's antinociception, in words” value is “significantly antagonized”.

In the case of `O=C(N[C@@H]1CC[C@@]2(O)[C@H]3Cc4ccc(O)c5c4[C@@]2(CCN3CC2CC2)[C@H]1O5)c1ccncc1` [NAP, 17-Cyclopropylmethyl-3,14β-Dihydroxy-4,5α-Epoxy-6β-[(4′-Pyridyl)Carboxamido]Morphinan], the “ED50 in gastrointestinal (GI)-tract motility assay” value in the data set with GI-tract motility is 8.8 µg/kg.

Consider `O=C(N[C@H]1CC[C@@]2(O)[C@H]3Cc4ccc(O)c5c4[C@@]2(CCN3CC2CC2)[C@H]1O5)c1cccs1` [NAT, reference compound], for which the half-inhibitory concentration (IC50) at MOR [3] came to 42.1 ± 4.51 nM. In the data set with Swiss Webster mice [5], the “%MPE in single dose agonism assay” value is 15.2 ± 8.8%. In the data set with morphine-pelleted mice, the “Jumps, mean count” value was found to be 45.8; the “Paw tremors, mean count” value was 29.2; the “Wet dog shake, mean count” value worked out at 14.5; the “Precipitated withdrawal symptoms, in words” value is “Significant withdrawal symptoms”. In the data set on Swiss Webster mice [6], the “%MPE in single dose antagonism assay” value is recorded as 2.1 ± 1.7% and the “AD50 (95% CL)” value was 0.42 (0.21–0.82) mg/kg.

With `C=CCN1CC[C@]23c4c5ccc(O)c4O[C@H]2C(=O)CC[C@@]3(O)[C@H]1C5` [NLX, naloxone], the “Precipitated withdrawal symptoms, in words” value in the data set on morphine-pelleted mice is “precipitated significant withdrawal symptoms”. In addition, in the data set on Swiss Webster mice [6], the “%MPE in single dose antagonism assay” value is 2.9 ± 1.3% and the “AD50 (95% CL)” value is 0.05 (0.03–0.09) mg/kg.
